The text below walks through data of patent US20230203043A1, “NOVEL IMIDAZOPYRAZINE DERIVATIVES” (Hoffmann-La Roche Inc., priority 2020, published 2023).

The structures appear in SMILES notation. Where a name gives a salt, the structure may show the parent alone.

One test deals with Acinetobacter baumannii ATCC17961. Nature of the test: Antimicrobial susceptibility testing: 90% growth inhibitory concentration (IC90) determination in Iso-Sensitest broth, OD600 growth. Particulars: Acinetobacter baumannii, ATCC17961, 16 h, read-out: A. baumannii ATCC 17961 IC90 (uM), strain ATCC 17961, OD600 growth over 16 h. The format is cell-based. Summed up:
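Growth inhibition is calculated during the logarithmic phase from OD600 readings taken every 20 minutes across 16 h at 35±2° C. Bacteria at ~5×10^(5) CFU/ml face twofold dilution series (e.g. 50 to 0.097 μM final).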
`CCc1cc(Nc2nccn3c(-c4cn(CC(F)F)nc4C(F)(F)F)cnc23)ccc1C(=O)NCCNC(=O)CCN` [Example 536, N-(2-(3-aminopropanamido)ethyl)-4-((3-(1-(2,2-difluoroethyl)-3-(trifluoromethyl)-1H-pyrazol-4-yl)imidazo[1,2-a]pyrazin-8-yl)amino)-2-ethylbenzamide formate]: the IC90 (usually the point of the concentration-response curve where the effect stands at 90%) stood at 0.145 µM.
Same read-out and setting: for `CCc1cc(Nc2nccn3c(-c4c[nH]nc4C(F)(F)F)cnc23)ccc1C(=O)NCCOCCCN` [Example 613, N-(2-(3-aminopropoxy)ethyl)-2-ethyl-4-((3-(3-(trifluoromethyl)-1H-pyrazol-4-yl)imidazo [1,2-a]pyrazin-8-yl)amino)benzamide formate] the value was 0.105 µM.
On to `NCCC(=O)N1CCN(C(=O)c2ccc(Nc3nccn4c(-c5c[nH]nc5C(F)(F)F)cnc34)cc2Cl)CC1` [Example 400, 3-amino-1-[4-[2-chloro-4-[[3-[3-(trifluoromethyl)-1H-pyrazol-4-yl]imidazo[1,2-a]pyrazin-8-yl]amino]benzoyl]piperazin-1-yl]propan-1-one formate], for which the IC90 stood at 0.217 µM.
In the case of `Cc1cc(Nc2nccn3c(-c4cn(C)nc4C(F)(F)F)cnc23)ccc1C(=O)N1CCN(C(=O)[C@H]2CCNC[C@H]2O)CC1` [Example 475, formic acid; [4-[(3S,4S)-3-hydroxypiperidine-4-carbonyl]piperazin-1-yl]-[2-methyl-4-[[3-[1-methyl-3-(trifluoromethyl)pyrazol-4-yl]imidazo[1,2-a]pyrazin-8-yl]amino]phenyl]methanone], the IC90 stood at 1.64 µM.
On the same count and under the same terms, next, `CNCC1(O)CCN(C(=O)c2ccc(Nc3nccn4c(-c5cn(CC#N)nc5C(F)(F)F)cnc34)cc2Cl)CC1` [Example 14, 2-[4-[8-[3-chloro-4-[4-hydroxy-4-(methylaminomethyl)piperidine-1-carbonyl]anilino]imidazo[1,2-a]pyrazin-3-yl]-3-(trifluoromethyl)pyrazol-1-yl]acetonitrile formate]: 0.141 µM.
The same measure, in the same setting: next, `CCc1cc(Nc2nccn3c(-c4c[nH]nc4C(F)(F)F)cnc23)ccc1C(=O)NCCN` [Example 229, N-(2-aminoethyl)-2-ethyl-4-[[3-[3-(trifluoromethyl)-1H-pyrazol-4-yl]imidazo[1,2-a]pyrazin-8-yl]amino]benzamide formate]: 1.1 µM; `NCCOCCNC(=O)c1ccc(Nc2nccn3c(-c4cn(CC(F)F)nc4C(F)(F)F)cnc23)cc1F` [Example 809, N-(2-(2-aminoethoxy)ethyl)-4-((3-(1-(2,2-difluoroethyl)-3-(trifluoromethyl)-1H-pyrazol-4-yl)imidazo[1,2-a]pyrazin-8-yl)amino)-2-fluorobenzamidei hydrochloride]: 0.17 µM.
For `COCCn1cc(-c2cnc3c(Nc4ccc(C(=O)N5CCN(C(=O)CCN)CC5)c(Cl)c4)nccn23)c(C(F)(F)F)n1` [Example 294, 3-amino-1-[4-[2-chloro-4-[[3-[1-(2-methoxyethyl)-3-(trifluoromethyl)pyrazol-4-yl]imidazo[1,2-a]pyrazin-8-yl]amino]benzoyl]piperazin-1-yl]propan-1-one formate], the IC90 is 0.457 µM.
As for `CCc1cc(Nc2nccn3c(-c4cn(CC(F)F)nc4C(F)(F)F)cnc23)ccc1C(=O)NCC(=O)N1CCC(N)CC1` [Example 666, N-[2-(4-amino-1-piperidyl)-2-oxo-ethyl]-4-[[3-[1-(2,2-difluoroethyl)-3-(trifluoromethyl)pyrazol-4-yl]imidazo[1,2-a]pyrazin-8-yl]amino]-2-ethyl-benzamide formate], the IC90 came out at 0.291 µM.
Still for that read-out and setting: next, `CCc1cc(Nc2nccn3c(-c4c[nH]nc4C(F)(F)F)cnc23)ccc1C(=O)NCC1CNC1` [Example 513, N-(azetidin-3-ylmethyl)-2-ethyl-4-((3-(3-(trifluoromethyl)-1H-pyrazol-4-yl)imidazo[1,2-a]pyrazin-8-yl)amino)benzamide formate]: 0.15 µM; `O=C(NC1CNC1)N1CCN(C(=O)c2ccc(Nc3nccn4c(-c5c[nH]nc5C(F)(F)F)cnc34)cc2Cl)CC1` [Example 394, N-(azetidin-3-yl)-4-[2-chloro-4-[[3-[3-(trifluoromethyl)-1H-pyrazol-4-yl]imidazo[1,2-a]pyrazin-8-yl]amino]benzoyl]piperazine-1-carboxamide formate]: 0.331 µM.

Staying with this test, now noted: Acinetobacter baumannii, ATCC17961, 16 h, strain ATCC 17961, OD600 growth over 16 h, read-out: A. baumannii ATCC 17961 IC90.
Regarding `CCc1cc(Nc2nccn3c(-c4cn(CC#N)nc4Cl)cnc23)ccc1C(=O)NCCOCCN` [Example 833, N-(2-(2-aminoethoxy)ethyl)-4-((3-(3-chloro-1-(cyanomethyl)-1H-pyrazol-4-yl)imidazo[1,2-α]pyrazin-8-yl)amino)-2-ethylbenzamide], the IC90 was determined as 0.46 µM.
Regarding `C[C@@H](N)C(=O)N1CCN(C(=O)c2ccc(Nc3nccn4c(-c5cn(CC#N)nc5C(F)(F)F)cnc34)cc2Cl)CC1` [Example 188, 2-[4-[8-[4-[4-[(2R)-2-aminopropanoyl]piperazine-1-carbonyl]-3-chloroanilino]imidazo[1,2-a]pyrazin-3-yl]-3-(trifluoromethyl)pyrazol-1-yl]acetonitrile], the IC90 was determined as 0.197 µM.
On the same count and under the same terms, next, `C#CCNC(=O)c1c(C)cc(Nc2nccn3c(-c4cn(CC=C)nc4C(F)(F)F)cnc23)cc1F` [Example 41, 2-fluoro-6-methyl-4-[[3-[1-prop-2-enyl-3-(trifluoromethyl)pyrazol-4-yl]imidazo[1,2-a]pyrazin-8-yl]amino]-N-prop-2-ynylbenzamide]: 0.254 µM; `CCc1cc(Nc2nccn3c(-c4cn(CC#N)nc4C(F)F)cnc23)ccc1C(=O)N1CCN(C(=O)C2CCNCC2)CC1` [Example 792, 2-(3-(difluoromethyl)-4-(8-((3-ethyl-4-(4-(piperidine-4-carbonyl)piperazine-1-carbonyl)phenyl)amino)imidazo[1,2-a]pyrazin-3-yl)-1H-pyrazol-1-yl)acetonitrile]: 1.92 µM; `CCc1cc(Nc2nccn3c(-c4cn(CC(F)F)nc4C(F)(F)F)cnc23)ccc1C(=O)N[C@H](C)CN` [Example 107, N-[(2R)-1-aminopropan-2-yl]-4-[[3-[1-(2,2-difluoroethyl)-3-(trifluoromethyl)pyrazol-4-yl]imidazo[1,2-a]pyrazin-8-yl]amino]-2-ethylbenzamide]: 0.239 µM.
Same read-out and setting: for `CCc1cc(Nc2nccn3c(-c4cn(CC(F)F)nc4C(F)(F)F)cnc23)ccc1C(=O)NCC(=O)N[C@H]1CCNC1` [Example 638, 4-[[3-[1-(2,2-difluoroethyl)-3-(trifluoromethyl)pyrazol-4-yl]imidazo[1,2-a]pyrazin-8-yl]amino]-2-ethyl-N-[2-oxo-2-[[(3S)-pyrrolidin-3-yl]amino]ethyl] benzamide formate] the value was 0.226 µM; for `CCc1cc(Nc2nccn3c(-c4cn(Cc5ccn(CC#N)n5)nc4C(F)(F)F)cnc23)ccc1C(=O)NC` [Example 589, 4-((3-(1-((1-(cyanomethyl)-1H-pyrazol-3-yl)methyl)-3-(trifluoromethyl)-1H-pyrazol-4-yl)imidazo[1,2-a]pyrazin-8-yl)amino)-2-ethyl-N-methylbenzamide], 0.84 µM.
Same read-out and setting: next, `CCc1cc(Nc2nccn3c(-c4cn(CC(F)F)nc4C(F)(F)F)cnc23)ccc1C(=O)NCCCNC(=O)[C@H]1C[C@H](N)C1` [Example 542, N-(3-((1r,3r)-3-aminocyclobutane-1-carboxamido)propyl)-4-((3-(1-(2,2-difluoroethyl)-3-(trifluoromethyl)-1H-pyrazol-4-yl)imidazo[1,2-a]pyrazin-8-yl)amino)-2-ethylbenzamide formate]: 0.196 µM; `C#CCn1cc(-c2cnc3c(Nc4ccc(C(=O)NC)c(Cl)c4)nccn23)c(C(F)(F)F)n1` [Example 351, 2-chloro-N-methyl-4-[[3-[1-prop-2-ynyl-3-(trifluoromethyl)pyrazol-4-yl]imidazo[1,2-a]pyrazin-8-yl]amino]benzamide]: 0.099 µM.
With `O=C(NC1CN(C(=O)c2ccc(Nc3nccn4c(-c5c[nH]nc5C(F)(F)F)cnc34)cc2Cl)C1)[C@@H]1C[C@@H](O)CN1` [Example 175, (2S,4R)-N-[1-[2-chloro-4-[[3-[3-(trifluoromethyl)-1H-pyrazol-4-yl]imidazo[1,2-a]pyrazin-8-yl]amino]benzoyl]azetidin-3-yl]-4-hydroxypyrrolidine-2-carboxamide], the IC90 was 0.357 µM.
Consider `CNC(=O)c1ccc(Nc2nccn3c(-c4cn(C(F)F)nc4C(F)(F)F)cnc23)cc1Cl` [Example 10, 2-chloro-4-[[3-[1-(difluoromethyl)-3-(trifluoromethyl)pyrazol-4-yl]imidazo[1,2-a]pyrazin-8-yl]amino]-N-methylbenzamide], for which the IC90 stood at 0.458 µM.

Staying with this test, now noted: strain ATCC 17961, OD600 growth over 16 h, read-out: A. baumannii ATCC 17961 IC90.
`C=CCn1cc(-c2cnc3c(Nc4ccc(C(=O)NCCCN)c(CC)c4)nccn23)c(C(F)(F)F)n1` [Example 48, N-(3-aminopropyl)-2-ethyl-4-[[3-[1-prop-2-enyl-3-(trifluoromethyl)pyrazol-4-yl]imidazo[1,2-a]pyrazin-8-yl]amino] benzamide]: the IC90 amounted to 0.117 µM.
Still for that read-out and setting: for `CCc1cc(Nc2nccn3c(-c4cn(CC5CC5)nc4C(F)(F)F)cnc23)ccc1C(=O)NCCOCCN` [Example 30, N-[2-(2-aminoethoxy)ethyl]-4-[[3-[1-(cyclopropylmethyl)-3-(trifluoromethyl)pyrazol-4-yl]imidazo[1,2-a]pyrazin-8-yl]amino]-2-ethylbenzmamide formate] the value was 0.159 µM; for `CCc1cc(Nc2nccn3c(-c4cn(CCC(F)(F)F)nc4C(F)(F)F)cnc23)ccc1C(=O)NCCOCCN` [Example 32, N-[2-(2-aminoethoxy)ethyl]-2-ethyl-4-[[3-[3-(trifluoromethyl)-1-(3,3,3-(trifluoropropyl)pyrazol-4-yl]imidazo[1,2-a]pyrazin-8-yl]amino]benzamide formate], 0.19 µM.
